Here are results for one molecule from patent US11273152B2, “TRPV2 antagonists” (Instituto de Medicina Molecular João Lobo Antunes, priority 2017, dated 2022).

Structures are written as SMILES. Entries after “also recorded” stand apart in the source; their conditions may differ.

One data set concerns the target TRPV3 (Homo sapiens, UniProt Q8NET8). Description: Fluorescence cell-based assay, TRPV3. The following applies: calcium 5 dye, duplicate. Here is the method:
(§1) The assays were performed at SB Discovery (Glasgow, UK) on a fee-for-service basis. Human TRP cells were trypsinised, counted and seeded in black, clear-bottomed 96 well plates at a density of 50,000 cells per well in 100 μL volume and incubated overnight. Next day, the cells were loaded with calcium 5 dye or membrane potential dye. TRPV1-5, TRPA1, TRPM2, TRPM3, and TRPM8 were tested using the calcium 5 dye. TRPC1, TRPC3-7, and TRPM4-5 were tested using the membrane potential dye. Both dye solutions were made up in HEPES buffered Hank's balanced salt solution (HBSS). Dye solution (90 μL) was added to the wells and incubated at 37° C. for 1 hour. Test compounds and standard inhibitors (10 μL) were then added to the wells and incubated at room temperature for 10 minutes. The plates were then placed in the flexstation and fluorescence monitored every 1.52 seconds. After 20 seconds agonist was added and the fluorescence monitored for 2 minutes at 485 nm/525 nm and 530 nm/565 nm, Ex/Em, for the calcium 5 dye and the membrane potential dye respectively. Controls-TRPV1: capsazepine; TRPV2: tranilast; TRPV3: ruthenium red; TRPV4: ruthenium red; TRPV5: Gd^3+; TRPA1, ruthenium red; TRPC1: Gd^3+; TRPC3: Pyr3; TRPC4: ML 204; TRPC5: ML 204; TRPC6: ML 204; TRPC7: SKF 96365; TRPM2: 2-APB; TRPM3: Mef acid; TRPM4: clotrimazole; TRPM5: TPPO; TRPM8: 2-APB. […]

Another data set deals with LNCaP cell line. Description: Cell viability, LNCaP. In kind it is cell-based. The settings on record: 5 and 10 μM, 24 hours. Here is the method: 5,000 cells/well were seeded in 96 well plates with DMEM containing 2% FBS. The next day piperlongumine was added at various concentrations. […] At 24, 48 and 72 hours the media was removed and replaced with CellTiter-Blue (Promega, 1:20 in media). The plate was incubated for 90 minutes before measuring fluorescence intensity.

In a further data set the target is TRPC4 (Homo sapiens, UniProt Q9UBN4). Description: Fluorescence cell-based assay, TRPC4. The settings on record: membrane potential dye, duplicate. The procedure: as §1
Sequence of TRPC4 (Q9UBN4 whole entry): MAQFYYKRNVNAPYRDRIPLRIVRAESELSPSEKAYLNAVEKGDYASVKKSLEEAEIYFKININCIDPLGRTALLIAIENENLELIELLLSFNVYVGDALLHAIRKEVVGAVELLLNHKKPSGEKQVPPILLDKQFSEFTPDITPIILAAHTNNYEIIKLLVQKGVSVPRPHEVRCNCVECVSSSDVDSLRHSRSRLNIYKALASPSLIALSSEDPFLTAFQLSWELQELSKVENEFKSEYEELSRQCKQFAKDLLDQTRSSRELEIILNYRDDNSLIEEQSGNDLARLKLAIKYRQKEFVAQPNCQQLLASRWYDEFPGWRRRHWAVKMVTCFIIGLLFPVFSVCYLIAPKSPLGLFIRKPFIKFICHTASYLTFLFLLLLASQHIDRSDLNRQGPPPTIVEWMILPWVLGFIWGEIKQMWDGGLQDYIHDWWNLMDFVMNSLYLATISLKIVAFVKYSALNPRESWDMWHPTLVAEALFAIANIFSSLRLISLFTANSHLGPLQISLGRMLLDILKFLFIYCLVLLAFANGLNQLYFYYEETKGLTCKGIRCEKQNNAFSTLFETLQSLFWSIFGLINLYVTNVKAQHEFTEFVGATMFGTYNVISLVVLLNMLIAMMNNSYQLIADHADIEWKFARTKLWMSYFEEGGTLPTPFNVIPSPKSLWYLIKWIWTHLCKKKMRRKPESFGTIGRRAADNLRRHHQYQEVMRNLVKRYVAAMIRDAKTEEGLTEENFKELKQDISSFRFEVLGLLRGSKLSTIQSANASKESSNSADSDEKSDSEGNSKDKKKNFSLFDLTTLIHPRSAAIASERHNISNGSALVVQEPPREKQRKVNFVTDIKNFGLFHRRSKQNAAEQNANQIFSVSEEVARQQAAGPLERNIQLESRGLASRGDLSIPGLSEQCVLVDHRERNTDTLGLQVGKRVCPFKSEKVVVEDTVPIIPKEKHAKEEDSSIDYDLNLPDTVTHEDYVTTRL
For the next data set, the system named is NCI-60 cancer cell lines. Description: NCI-60 Human Tumor Cell Lines Screen. Format: cell-based. The settings on record: Gl50 and IC50 -z scores; five concentrations. The procedure: Piperlongumine was submitted to the NCI-60 Human Tumor Cell Lines Screen and its activity was measured at five concentration levels (0.01, 0.1, 1, 10 and 100 μM) in 59 NCI-60 cell lines with four dose response parameters (Gl50, IC50, LC50 and TGI). The TRPV2 normalized gene expression (averaged probe intensities combined from five microarray platforms) in NCI-60 cell lines was downloaded from the CellMiner database ^36,37. The Spearman correlation was used to test the interdependence between TRPV2 expression levels and piperlongumine IC50 values against 57 cancer cell lines.

The target of another data set is TRPM8 (Homo sapiens, UniProt Q7Z2W7). The experiment in a line: Fluorescence cell-based assay, TRPM8. The following applies: calcium 5 dye, duplicate. The procedure:
as §1

The next data set deals with HEK293 cells. Description: Viability of HEK cells transiently transfected with TRPV2. Format: cell-based, human. Here is the method: 75,000 HEK293 cells were seeded in each well of a 24 well plate. The next day cells were transfected with hTRPV2-RFP plasmid (kindly gifted by Prof. Itaru Kojima, Gunma University, Japan). After incubating for 24 hours the media was changed and PL was added at 5 and 10 μM. 24 hours later cell viability was assessed using CellTitre-Blue (Promega) or Annexin V, 7-AAD staining. Transfection efficiency was assessed using flow cytometry.
Cells were harvested from plates by washing with media (HEK293) or TrypLE express (Gibco). The media was removed after centrifugation and the cells were washed twice with binding buffer before being incubated for 30 minutes at room temperature with Annexin V-APC (eBiosciences, 1:100) and 7-AAD (Pharmigen, 1:50). Samples were diluted with binding buffer and analyzed by flow cytometry using BD LSRFortessa X-20 with FACS Diva software. Samples with single stains were used as controls.

In a further data set the target is TRPV4 (Homo sapiens, UniProt Q9HBA0). The experiment in a line: Fluorescence cell-based assay, TRPV4. The settings on record: calcium 5 dye, duplicate. The procedure:
as §1

In the next data set the test system is HepG2 cells. The experiment in a line: Wound-healing scratch assay, HepG2. Format: cell-based. The following applies: 24-hour.
The target of a further data set is TRPC1 (Homo sapiens, UniProt P48995). The experiment in a line: Fluorescence cell-based assay, TRPC1. The settings on record: membrane potential dye, duplicate. Here is the method:
as §1

The target in data set [1] is T1, TRPV2 (Homo sapiens, UniProt Q9Y5S1).
T1 sequence (Q9Y5S1 1-764): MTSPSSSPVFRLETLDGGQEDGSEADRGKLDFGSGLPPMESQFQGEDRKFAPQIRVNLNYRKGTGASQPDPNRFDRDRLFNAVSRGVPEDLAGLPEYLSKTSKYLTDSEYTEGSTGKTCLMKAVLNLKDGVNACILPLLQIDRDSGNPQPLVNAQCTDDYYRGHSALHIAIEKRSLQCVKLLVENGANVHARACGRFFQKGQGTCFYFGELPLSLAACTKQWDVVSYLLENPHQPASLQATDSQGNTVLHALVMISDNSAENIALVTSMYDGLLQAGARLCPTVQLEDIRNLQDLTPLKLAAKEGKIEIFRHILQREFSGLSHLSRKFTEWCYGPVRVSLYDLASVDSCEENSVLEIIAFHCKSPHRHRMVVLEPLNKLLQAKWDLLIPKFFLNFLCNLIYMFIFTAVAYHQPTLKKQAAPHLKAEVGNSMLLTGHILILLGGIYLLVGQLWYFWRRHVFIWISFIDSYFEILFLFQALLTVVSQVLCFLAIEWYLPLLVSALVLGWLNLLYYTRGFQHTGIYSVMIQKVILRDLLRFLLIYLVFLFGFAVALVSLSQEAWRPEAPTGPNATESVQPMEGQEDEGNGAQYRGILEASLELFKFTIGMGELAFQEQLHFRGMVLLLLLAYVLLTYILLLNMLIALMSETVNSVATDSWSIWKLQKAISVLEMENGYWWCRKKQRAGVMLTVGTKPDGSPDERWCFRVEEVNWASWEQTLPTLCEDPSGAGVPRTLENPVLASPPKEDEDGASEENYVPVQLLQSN
The experiment in a line: Fluorescence cell-based assay, TRPV2 (cannabidiol-evoked calcium influx). The following applies: TRPV2. The procedure: The assays were performed at SB Discovery (Glasgow, UK) on a fee-for-service basis. Human TRP cells were trypsinised, counted and seeded in black, clear-bottomed 96 well plates at a density of 50,000 cells per well in 100 μL volume and incubated overnight. Next day, the cells were loaded with calcium 5 dye or membrane potential dye. TRPV1-5, TRPA1, TRPM2, TRPM3, and TRPM8 were tested using the calcium 5 dye. TRPC1, TRPC3-7, and TRPM4-5 were tested using the membrane potential dye. Both dye solutions were made up in HEPES buffered Hank's balanced salt solution (HBSS). Dye solution (90 μL) was added to the wells and incubated at 37° C. for 1 hour. Test compounds and standard inhibitors (10 μL) were then added to the wells and incubated at room temperature for 10 minutes. The plates were then placed in the flexstation and fluorescence monitored every 1.52 seconds. After 20 seconds agonist was added and the fluorescence monitored for 2 minutes at 485 nm/525 nm and 530 nm/565 nm, Ex/Em, for the calcium 5 dye and the membrane potential dye respectively. Controls-TRPV1: capsazepine; TRPV2: tranilast; TRPV3: ruthenium red; TRPV4: ruthenium red; TRPV5: Gd^3+; TRPA1, ruthenium red; TRPC1: Gd^3+; TRPC3: Pyr3; TRPC4: ML 204; TRPC5: ML 204; TRPC6: ML 204; TRPC7: SKF 96365; TRPM2: 2-APB; TRPM3: Mef acid; TRPM4: clotrimazole; TRPM5: TPPO; TRPM8: 2-APB. Control data was in all cases within historical range.

Another data set deals with TRPM4 (Homo sapiens, UniProt Q8TD43). Description: Fluorescence cell-based assay, TRPM4. The settings on record: membrane potential dye, duplicate. Here is the method:
as §1

Another data set addresses TRPV5 (Homo sapiens, UniProt Q9NQA5). The experiment in a line: Fluorescence cell-based assay, TRPV5. The settings on record: calcium 5 dye, duplicate. Here is the method:
as §1

Data set [2] concerns the target T1, TRPV2. The experiment in a line: Co-incubation experiments with cannabidiol (mode of binding). In kind it is cell-based.

Sequence of TRPM4 (Q8TD43 whole entry): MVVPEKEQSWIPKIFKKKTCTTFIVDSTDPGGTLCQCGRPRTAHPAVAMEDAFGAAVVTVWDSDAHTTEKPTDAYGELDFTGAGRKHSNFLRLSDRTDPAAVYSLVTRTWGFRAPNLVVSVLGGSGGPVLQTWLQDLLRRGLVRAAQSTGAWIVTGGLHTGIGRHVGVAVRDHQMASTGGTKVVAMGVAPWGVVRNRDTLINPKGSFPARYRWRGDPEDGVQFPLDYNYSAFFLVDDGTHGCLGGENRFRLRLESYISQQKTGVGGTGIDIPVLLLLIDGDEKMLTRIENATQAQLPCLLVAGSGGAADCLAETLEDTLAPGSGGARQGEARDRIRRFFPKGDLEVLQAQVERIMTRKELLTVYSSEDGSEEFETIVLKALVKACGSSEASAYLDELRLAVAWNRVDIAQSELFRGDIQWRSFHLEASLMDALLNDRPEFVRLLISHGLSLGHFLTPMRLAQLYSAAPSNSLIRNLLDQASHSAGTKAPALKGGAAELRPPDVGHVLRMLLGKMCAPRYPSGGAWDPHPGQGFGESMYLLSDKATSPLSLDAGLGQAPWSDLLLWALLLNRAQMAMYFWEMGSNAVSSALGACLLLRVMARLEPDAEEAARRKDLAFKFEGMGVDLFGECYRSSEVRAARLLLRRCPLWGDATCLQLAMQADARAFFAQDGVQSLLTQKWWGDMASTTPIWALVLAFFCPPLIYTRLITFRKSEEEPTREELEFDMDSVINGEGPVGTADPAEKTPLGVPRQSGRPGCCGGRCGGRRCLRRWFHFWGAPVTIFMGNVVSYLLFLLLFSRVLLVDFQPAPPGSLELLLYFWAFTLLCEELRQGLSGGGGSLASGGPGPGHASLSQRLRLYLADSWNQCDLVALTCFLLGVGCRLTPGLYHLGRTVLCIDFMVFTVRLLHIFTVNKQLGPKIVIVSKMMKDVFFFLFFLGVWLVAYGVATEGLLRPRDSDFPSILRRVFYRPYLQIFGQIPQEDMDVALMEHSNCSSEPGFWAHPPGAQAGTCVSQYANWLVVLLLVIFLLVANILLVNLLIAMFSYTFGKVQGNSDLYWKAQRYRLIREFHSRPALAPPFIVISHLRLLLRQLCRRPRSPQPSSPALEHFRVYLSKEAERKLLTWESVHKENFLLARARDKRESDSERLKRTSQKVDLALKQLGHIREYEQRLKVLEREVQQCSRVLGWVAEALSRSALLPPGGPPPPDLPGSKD
Sequence of TRPV4 (Q9HBA0 whole entry): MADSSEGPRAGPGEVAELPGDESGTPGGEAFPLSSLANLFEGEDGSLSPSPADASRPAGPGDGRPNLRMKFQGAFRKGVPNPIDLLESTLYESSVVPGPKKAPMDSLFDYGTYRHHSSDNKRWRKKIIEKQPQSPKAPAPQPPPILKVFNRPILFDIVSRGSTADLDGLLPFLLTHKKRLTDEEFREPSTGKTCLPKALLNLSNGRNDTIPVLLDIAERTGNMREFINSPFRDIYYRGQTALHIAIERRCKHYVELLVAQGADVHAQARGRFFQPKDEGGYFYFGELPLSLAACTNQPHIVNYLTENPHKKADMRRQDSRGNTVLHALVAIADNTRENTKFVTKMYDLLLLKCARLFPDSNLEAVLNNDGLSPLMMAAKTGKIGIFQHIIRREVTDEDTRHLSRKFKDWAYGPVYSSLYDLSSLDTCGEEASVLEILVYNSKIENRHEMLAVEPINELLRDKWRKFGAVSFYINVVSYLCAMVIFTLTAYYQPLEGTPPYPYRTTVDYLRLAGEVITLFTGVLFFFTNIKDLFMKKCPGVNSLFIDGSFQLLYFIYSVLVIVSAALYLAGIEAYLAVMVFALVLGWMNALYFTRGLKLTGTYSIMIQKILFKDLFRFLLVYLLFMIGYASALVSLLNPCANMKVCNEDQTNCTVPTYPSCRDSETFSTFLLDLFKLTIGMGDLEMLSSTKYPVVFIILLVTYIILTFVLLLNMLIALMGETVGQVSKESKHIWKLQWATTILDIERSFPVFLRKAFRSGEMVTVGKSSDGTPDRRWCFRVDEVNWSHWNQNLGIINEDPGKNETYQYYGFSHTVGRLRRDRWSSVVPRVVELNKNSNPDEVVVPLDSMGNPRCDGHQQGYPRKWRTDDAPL
Sequence of TRPM8 (Q7Z2W7 whole entry): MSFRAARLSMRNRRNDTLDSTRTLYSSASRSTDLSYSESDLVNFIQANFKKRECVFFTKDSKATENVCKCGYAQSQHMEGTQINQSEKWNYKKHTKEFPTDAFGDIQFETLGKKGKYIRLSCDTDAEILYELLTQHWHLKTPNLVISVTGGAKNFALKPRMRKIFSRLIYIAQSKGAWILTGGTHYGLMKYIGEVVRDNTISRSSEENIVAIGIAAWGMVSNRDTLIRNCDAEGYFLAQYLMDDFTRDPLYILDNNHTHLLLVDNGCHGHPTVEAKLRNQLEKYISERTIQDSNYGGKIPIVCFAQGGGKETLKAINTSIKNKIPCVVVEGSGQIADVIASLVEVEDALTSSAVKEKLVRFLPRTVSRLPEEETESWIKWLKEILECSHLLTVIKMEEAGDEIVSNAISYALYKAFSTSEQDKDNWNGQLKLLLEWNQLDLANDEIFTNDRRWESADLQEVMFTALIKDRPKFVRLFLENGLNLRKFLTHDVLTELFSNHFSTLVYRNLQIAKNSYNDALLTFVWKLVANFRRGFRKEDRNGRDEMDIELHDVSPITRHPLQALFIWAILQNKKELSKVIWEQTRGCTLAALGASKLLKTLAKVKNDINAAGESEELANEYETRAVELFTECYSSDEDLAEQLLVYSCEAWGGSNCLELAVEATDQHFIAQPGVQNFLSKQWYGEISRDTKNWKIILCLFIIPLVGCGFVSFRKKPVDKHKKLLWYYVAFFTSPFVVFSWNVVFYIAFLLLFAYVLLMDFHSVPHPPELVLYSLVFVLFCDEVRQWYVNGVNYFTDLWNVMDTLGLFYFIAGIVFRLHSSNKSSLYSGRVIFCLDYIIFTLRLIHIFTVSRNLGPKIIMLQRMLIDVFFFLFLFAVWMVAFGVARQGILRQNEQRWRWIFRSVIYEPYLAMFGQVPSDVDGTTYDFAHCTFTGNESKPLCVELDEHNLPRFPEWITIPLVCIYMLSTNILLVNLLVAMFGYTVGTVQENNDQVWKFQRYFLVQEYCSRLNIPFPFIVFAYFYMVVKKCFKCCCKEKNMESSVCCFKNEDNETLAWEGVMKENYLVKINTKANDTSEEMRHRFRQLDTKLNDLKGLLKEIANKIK
Sequence of TRPV3 (Q8NET8 whole entry): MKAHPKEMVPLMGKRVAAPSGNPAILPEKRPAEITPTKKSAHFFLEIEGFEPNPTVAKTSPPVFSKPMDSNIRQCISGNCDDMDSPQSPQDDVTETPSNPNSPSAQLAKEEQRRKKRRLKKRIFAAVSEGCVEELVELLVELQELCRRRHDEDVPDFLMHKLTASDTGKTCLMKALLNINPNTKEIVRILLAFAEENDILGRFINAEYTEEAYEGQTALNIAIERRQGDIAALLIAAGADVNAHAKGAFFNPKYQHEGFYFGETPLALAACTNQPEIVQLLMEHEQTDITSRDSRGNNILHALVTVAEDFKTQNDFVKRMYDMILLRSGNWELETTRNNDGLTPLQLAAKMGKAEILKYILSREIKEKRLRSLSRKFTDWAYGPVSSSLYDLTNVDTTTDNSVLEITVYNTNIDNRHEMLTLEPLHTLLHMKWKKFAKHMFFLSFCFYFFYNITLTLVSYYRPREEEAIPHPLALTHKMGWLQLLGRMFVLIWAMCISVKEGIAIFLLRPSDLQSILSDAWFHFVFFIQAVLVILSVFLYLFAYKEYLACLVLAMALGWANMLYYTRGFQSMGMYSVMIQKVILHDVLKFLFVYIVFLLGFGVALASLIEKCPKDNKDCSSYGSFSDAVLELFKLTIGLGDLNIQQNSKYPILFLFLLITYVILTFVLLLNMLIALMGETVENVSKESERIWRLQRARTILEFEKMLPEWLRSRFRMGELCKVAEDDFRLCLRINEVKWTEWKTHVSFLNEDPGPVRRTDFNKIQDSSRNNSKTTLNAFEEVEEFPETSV

Consider `COc1cc(/C=C/C(=O)N2CCC=CC2=O)cc(OC)c1OC` [Compound 1, piperlongumine], for which the IC50 is greater than 100 µM at TRPV3; greater than 100 µM against TRPC4; greater than 100 µM on TRPM8; greater than 100 µM at TRPV4; greater than 100 µM on TRPC1; 4.6 µM at TRPV2 [1] (calcium 5 dye, spread in log units, duplicate, read-out: IC50/μM ± SD). Further, the IC50 against TRPM4 and at TRPV5 was greater than 100 µM in each case. The Cell viability result in the data set on LNCaP cell line was “cell viability was compromised”. In the data set on NCI-60 cancer cell lines, the “Anti-proliferative activity across NCI-60, most sensitive tissues” value was “blood, colon and skin cancer cell lines were found to be the most sensitive”. For the same molecule, in the data set on HEK293 cells, the “Viability of TRPV2-transfected cells vs non-transfected controls” value is “identical result”. Also, the “Cell death during wound-healing assay” value with HepG2 cells (5 μM) is listed as “did not induce significant cell death”. The “Cell migration, wound healing” value with HepG2 cells (1 at 5 μM) is on record as “significantly reduced migration; also recorded: inhibits cancer cell migration in a Ca^2+-dependent manner”. Moreover, the “Ligand Efficiency” value at TRPV2 [1] was found to be 0.32. The Mode of antagonism entry at TRPV2 [2] (EC50 curves of cannabidiol with increasing concentrations of 1) is given as “non-competitive (allosteric) antagonism”. On TRPV2 [2] (Michaelis-Menten analysis), the “Concentration of 1 above which apparent vmax of cannabidiol is reduced” value was “higher than 5 pM”.
